Results from US20260028451A1, “Amido-Amine Hardener” (priority 2022, published 2026).

Columns and labels:
MELN cells = assay type: cell-based, human
Description: The use of bisphenol A in epoxy systems is often avoided for this reason. Various phenolic compounds, such as phenolic Mannich bases may also pose a risk of acting as oestrogen agonists, this is thought to be due to structural similarity between the phenolic group and the phenolic group present in oestrogen itself. […]. The tests were performed using MELN cells [hER-stably transfected model of the human breast cancer MCF-7 cells]. The use of MELN cells for screening cytotoxicity and oestrogenic activity is a standard test known in the art, for example, as described in Berckmans P, Leppens H, Vangenechten C, Witters H., “Screening of endocrine disrupting chemicals with MELN cells, an ER-transactivation assay combined with cytotoxicity assessment”, Toxicol In Vitro. 2007, 21(7), 1262-7.

oestrogen receptor = biological target: T1, oestrogen receptor (Homo sapiens, UniProt P03372); test: Oestrogenic activity testing using MELN cells (ER-transactivation assay); assay type: cell-based; conditions: hER-stably transfected MCF-7
T1 construct: MELN cells [hER-stably transfected model of the human breast cancer MCF-7 cells]; endogenous in cells; host or cells: MELN cells (MCF-7 human breast cancer cells)
T1 sequence (P03372 1-595): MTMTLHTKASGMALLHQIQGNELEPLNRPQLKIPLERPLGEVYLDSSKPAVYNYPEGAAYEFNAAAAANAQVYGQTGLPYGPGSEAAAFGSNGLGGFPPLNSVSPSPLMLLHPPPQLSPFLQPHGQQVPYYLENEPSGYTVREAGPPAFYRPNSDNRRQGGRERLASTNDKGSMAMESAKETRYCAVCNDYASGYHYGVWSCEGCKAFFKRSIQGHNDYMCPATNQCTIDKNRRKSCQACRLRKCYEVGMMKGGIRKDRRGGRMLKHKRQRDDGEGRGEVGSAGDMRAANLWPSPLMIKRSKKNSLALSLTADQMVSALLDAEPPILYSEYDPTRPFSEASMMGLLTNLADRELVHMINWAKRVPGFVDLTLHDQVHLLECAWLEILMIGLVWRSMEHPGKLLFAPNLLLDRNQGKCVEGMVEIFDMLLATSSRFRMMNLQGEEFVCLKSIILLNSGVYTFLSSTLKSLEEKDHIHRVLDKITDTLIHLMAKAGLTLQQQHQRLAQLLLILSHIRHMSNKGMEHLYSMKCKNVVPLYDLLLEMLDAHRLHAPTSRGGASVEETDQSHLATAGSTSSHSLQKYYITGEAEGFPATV
Description: Various phenolic compounds, such as phenolic Mannich bases may also pose a risk of acting as oestrogen agonists, this is thought to be due to structural similarity between the phenolic group and the phenolic group present in oestrogen itself. […] The tests were performed using MELN cells [hER-stably transfected model of the human breast cancer MCF-7 cells].

[1] = Viscosity at 25° C., ASTM D2556-14(2018); assay type: physicochemical; conditions: undiluted curative composition / product as prepared
Description: This material was then diluted with benzyl alcohol in order to reduce the viscosity. The relationship between the viscosity (as measured by ASTM D2556-14(2018)) and the vol % dilution with benzyl alcohol is shown in FIG. 1. […] The properties of a 63:37 vol/vol mixture of salicylamide Mannich base C:benzyl alcohol are shown below in Table 7.

Agonist response (oestrogen receptor) | Viscosity at 25° C. [1] | SMILES | Cytotoxicity (MELN cells)
 |  | C[C@]12CC[C@@H]3c4ccc(O)cc4CC[C@H]3[C@@H]1CC[C@@H]2O [17β- oestradiol, 17β-oestradiol] | No
Negative | 1130 m · Pas | NCCNCCNCCNCc1cc(CNCCNCCNCCN)c(O)c(C(=O)NCCNCCNCCN)c1 [Salicylamide Mannich Base A] | No
Positive |  | CC(C)(c1ccc(O)cc1)c1ccc(O)cc1 [Bisphenol A, bisphenol A] | No
